According to patent publication US20250243176A1, “(S)-1-(1-ACRYLOYLPIPERIDIN-3-YL)-2-FLUORO-5,6,7,8,9,10-HEXAHYDROCYCLO HEPTA[B]INDOLE-4-CARBOXAMIDE, AND RELATED CRYSTALLINE FORMS, COMPOSITIONS, AND METHODS THEREOF” (GB005, Inc., priority 2021, published 2025):
In brackets after ≈: the same amount, converted by molar mass.

Assays:
[1] = Solubility testing in vehicle, HPLC (Form III); format: physicochemical; details: thermodynamic from solid
Description: In each of the following studies (Examples 6-10), the starting material was Compound 1 (free form, not salt) Form III. The material was a light yellow solid, comprising non-hygroscopic irregular shaped crystal with aggregation. The same analytical methods as described in Example 1 were employed.
Vehicle solutions were prepared as follows:
Solubility was determined at room temperature for 24 and 72 hours and at 45° C. for 4 and 24 hours. About 30/100 mg Compound 1 was added to vehicle (2 mL) and the mixture stirred at room temperature for 24 or 72 hours. The suspensions were filtered or centrifuged, and the filtrate analyzed by HPLC.

TEC = biological target: T1, TEC (Homo sapiens, UniProt P42680); test: Kinome scan, TEC; format: biochemical
T1 sequence (P42680 1-631): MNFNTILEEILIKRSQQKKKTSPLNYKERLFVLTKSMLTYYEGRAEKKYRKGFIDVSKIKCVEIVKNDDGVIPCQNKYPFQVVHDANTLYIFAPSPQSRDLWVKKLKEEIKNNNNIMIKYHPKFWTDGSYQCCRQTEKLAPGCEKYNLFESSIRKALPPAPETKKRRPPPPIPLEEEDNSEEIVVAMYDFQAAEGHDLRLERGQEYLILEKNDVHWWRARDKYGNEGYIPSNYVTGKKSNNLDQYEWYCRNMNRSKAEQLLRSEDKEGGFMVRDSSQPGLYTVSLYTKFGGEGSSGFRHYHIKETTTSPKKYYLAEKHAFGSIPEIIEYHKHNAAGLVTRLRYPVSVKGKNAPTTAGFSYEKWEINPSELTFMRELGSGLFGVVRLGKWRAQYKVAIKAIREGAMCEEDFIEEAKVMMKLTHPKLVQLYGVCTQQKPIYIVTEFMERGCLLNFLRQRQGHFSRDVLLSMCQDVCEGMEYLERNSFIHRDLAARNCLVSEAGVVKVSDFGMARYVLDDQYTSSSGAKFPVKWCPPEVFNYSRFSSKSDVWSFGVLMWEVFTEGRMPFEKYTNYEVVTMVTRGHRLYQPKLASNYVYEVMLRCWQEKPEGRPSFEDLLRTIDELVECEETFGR
Excerpt: (§1) (S)-1-(1-acryloylpiperidin-3-yl)-2-fluoro-5,6,7,8,9,10-hexahydrocyclohepta[b]indole-4-carboxamide, hereinafter referred to as “Compound 1”, is an orally available, selective, potent inhibitor of Bruton's tyrosine kinase (BTK), thereby providing potential treatment options in BTK-driven diseases. The potency of Compound 1 for BTK inhibition is in the nM range in both cell-free enzymatic and whole blood functional assays.

[2] = biological target: T2, Bruton's tyrosine kinase (BTK) (Homo sapiens, UniProt Q06187); test: BTK whole blood functional assay; format: cell-based
T2 construct: from tissue; host or cells: whole blood
T2 sequence (Q06187 whole entry, species assumed): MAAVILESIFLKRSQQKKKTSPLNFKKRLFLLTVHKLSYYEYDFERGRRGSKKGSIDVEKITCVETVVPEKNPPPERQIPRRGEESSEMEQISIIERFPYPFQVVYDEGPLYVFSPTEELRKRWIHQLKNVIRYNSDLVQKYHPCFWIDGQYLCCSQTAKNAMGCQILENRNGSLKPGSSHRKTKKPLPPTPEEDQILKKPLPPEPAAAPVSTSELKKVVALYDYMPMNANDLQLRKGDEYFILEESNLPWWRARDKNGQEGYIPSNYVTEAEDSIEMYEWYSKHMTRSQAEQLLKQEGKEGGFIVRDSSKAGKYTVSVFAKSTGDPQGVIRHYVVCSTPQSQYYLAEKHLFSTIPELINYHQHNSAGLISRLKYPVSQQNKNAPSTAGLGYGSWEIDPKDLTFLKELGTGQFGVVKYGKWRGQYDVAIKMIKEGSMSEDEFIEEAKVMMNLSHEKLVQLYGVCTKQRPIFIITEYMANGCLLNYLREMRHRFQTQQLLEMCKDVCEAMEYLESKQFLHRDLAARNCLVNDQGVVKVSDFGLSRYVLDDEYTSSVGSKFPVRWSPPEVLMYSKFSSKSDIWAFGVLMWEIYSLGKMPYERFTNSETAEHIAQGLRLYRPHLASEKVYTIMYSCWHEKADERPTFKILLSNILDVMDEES
Excerpt: as §1

[3] = Phase 1 multiple ascending dose plasma pharmacokinetics; format: in vivo; details: both sexes, human, oral, MAD cohort, 15 mg once daily for 10 days, fed
[4] = aqueous with cosolvent or surfactant or cyclodextrin, 10% TPGS, RT, pH 5.3, loading 15 mg/mL
[5] = aqueous with cosolvent or surfactant or cyclodextrin, Gelucire 48/16, 45° C., loading 50 mg/mL
[6] = oil or lipid, Miglyol 810, RT, pH 5.8, loading 15 mg/mL
[7] = oil or lipid, Phosal 50PG, RT, pH 5.8, loading 50 mg/mL
[8] = oil or lipid, Sesame oil, RT, pH 6.5, loading 15 mg/mL

Compound: C=CC(=O)N1CCC[C@@H](c2c(F)cc(C(N)=O)c3[nH]c4c(c23)CCCCC4)C1 [Compound 1, (S)-1-(1-acryloylpiperidin-3-yl)-2-fluoro-5,6,7,8,9,10-hexahydrocyclohepta[b]indole-4-carboxamide]
- solubility at 72 h ([1]; aqueous with cosolvent or surfactant or cyclodextrin, 10% SBE-B-CD, RT, pH 6.5, loading 15 mg/mL): 1.61 mg/mL (≈ 4.2 mM)
- solubility at 24 h [1, 4]: 2.03 mg/mL (≈ 5.29 mM)
- solubility at 72 h [1, 4]: 2.04 mg/mL (≈ 5.32 mM)
- solubility at 4 h ([1]; aqueous with cosolvent or surfactant or cyclodextrin, Cremophor RH40, 45° C., loading 50 mg/mL): 18.6 mg/mL (≈ 48.5 mM)
- solubility at 4 h ([1]; aqueous with cosolvent or surfactant or cyclodextrin, Gelucire 44/14, 45° C., pH 5.7, loading 50 mg/mL): 48.1 mg/mL (≈ 125 mM)
- solubility at 24 h ([1]; aqueous with cosolvent or surfactant or cyclodextrin, Gelucire 44/14, 45° C., pH 5.8, loading 50 mg/mL): > 50 mg/mL
- solubility at 4 h [1, 5]: 44.3 mg/mL (≈ 116 mM)
- solubility at 24 h [1, 5]: > 50 mg/mL
- solubility at 24 h ([1]; aqueous with cosolvent or surfactant or cyclodextrin, Labrasol, RT, pH 6.9, loading 50 mg/mL): > 50 mg/mL
- solubility at 72 h ([1]; aqueous with cosolvent or surfactant or cyclodextrin, Labrasol, RT, pH 6.4, loading 50 mg/mL): > 50 mg/mL
- solubility at 24 h ([1]; oil or lipid, Capryol 90, RT, pH 6.8, loading 50 mg/mL): 47.9 mg/mL (≈ 125 mM)
- solubility at 72 h ([1]; oil or lipid, Capryol 90, RT, pH 6.5, loading 50 mg/mL): > 50 mg/mL
- solubility at 24 h [1, 6]: 2.16 mg/mL (≈ 5.63 mM)
- solubility at 72 h [1, 6]: 2.67 mg/mL (≈ 6.96 mM)
- solubility at 4 h ([1]; oil or lipid, Oleic acid, 45° C., pH 3.0, loading 15 mg/mL): 8.5 mg/mL (≈ 22.2 mM)
- solubility at 24 h ([1]; oil or lipid, Oleic acid, 45° C., pH 3.3, loading 15 mg/mL): 14 mg/mL (≈ 36.5 mM)
- solubility at 24 h ([1]; oil or lipid, Olive oil, RT, pH 5.2, loading 15 mg/mL): 0.44 mg/mL (≈ 1.15 mM)
- solubility at 72 h ([1]; oil or lipid, Olive oil, RT, pH 5.8, loading 15 mg/mL): 0.91 mg/mL (≈ 2.37 mM)
- solubility at 24 h [1, 7]: 15.7 mg/mL (≈ 40.8 mM)
- solubility at 72 h [1, 7]: 23.8 mg/mL (≈ 62 mM)
- solubility at 24 h [1, 8]: 0.73 mg/mL (≈ 1.9 mM)
- solubility at 72 h [1, 8]: 0.76 mg/mL (≈ 1.98 mM)
- solubility at 4 h ([1]; oil or lipid, phsal 53 MCT, 45° C., pH 5.3, loading 15 mg/mL): 6.4 mg/mL (≈ 16.7 mM)
- solubility at 24 h ([1]; oil or lipid, phsal 53 MCT, 45° C., pH 5.1, loading 15 mg/mL): > 15 mg/mL
- solubility at 24 h ([1]; organic solvent or mixture, Cremophor EL, RT, pH 8.5, loading 50 mg/mL): 19.5 mg/mL (≈ 50.9 mM)
- solubility at 72 h ([1]; organic solvent or mixture, Cremophor EL, RT, pH 8.3, loading 50 mg/mL): 33 mg/mL (≈ 86.1 mM)
- solubility at 4 h ([1]; organic solvent or mixture, Cremophor HS 15, 45° C., pH 7.6, loading 50 mg/mL): > 50 mg/mL
- solubility at 24 h ([1]; organic solvent or mixture, Cremophor HS 15, 45° C., pH 7.5, loading 50 mg/mL): > 50 mg/mL
- solubility at 24 h ([1]; organic solvent or mixture, Cremophor RH40, 45° C., loading 50 mg/mL): 33 mg/mL (≈ 86.1 mM)
- solubility at 24 h ([1]; organic solvent or mixture, EtOH, RT, pH 5.9, loading 50 mg/mL): 19.4 mg/mL (≈ 50.6 mM)
- solubility at 72 h ([1]; organic solvent or mixture, EtOH, RT, pH 6.2, loading 50 mg/mL): 27.6 mg/mL (≈ 72 mM)
- solubility at 4 h ([1]; organic solvent or mixture, PEG400/TPGS(3/1), 45° C., pH 6.6, loading 50 mg/mL): > 50 mg/mL
- solubility at 24 h ([1]; organic solvent or mixture, PEG400/TPGS(3/1), 45° C., pH 6.1, loading 50 mg/mL): > 50 mg/mL
- solubility at 24 h ([1]; organic solvent or mixture, PEG400, RT, pH 5.6, loading 50 mg/mL): > 50 mg/mL
- solubility at 72 h ([1]; organic solvent or mixture, PEG400, RT, pH 6.7, loading 50 mg/mL): > 50 mg/mL
- solubility at 24 h ([1]; organic solvent or mixture, PG, RT, pH 5.1, loading 50 mg/mL): 48.2 mg/mL (≈ 126 mM)
- solubility at 72 h ([1]; organic solvent or mixture, PG, RT, pH 5.2, loading 50 mg/mL): > 50 mg/mL
- inhibition at 1 µM (TEC): > 50%
- potency for BTK inhibition [2]: nM range
- Tmax [3]: 1.5 h
